Assay [1] concerns the target T1, HCV NS5B RdRp genotype 1b (Hepatitis C virus genotype 1b, UniProt Q9WMX2).
T1 construct: The protein was expressed with an 18 amino acid C-terminal truncation to enhance the solubility; made in house; host or cells: E. coli BL21(DE3), pET21a vector
The experiment in a line: Standard HCV NS5B RdRp enzyme assay. Type of assay: biochemical. Conditions: Table 1a; HCV NS5B RdRp genotype 1b; read-out: IC50. Put shortly:
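Radiometric SPA measuring 3H-UMP incorporation on polyA/biotin-oligo-dT12 (6 nM/180 nM), 0.29 μM total UTP. Enzyme: NS5B 1b lacking last 18 residues, 28 nM final, 30° C for 60 min in 20 mM Hepes pH 7.5, 2.5 mM MgCl2, 2% DMSO. IC50 from seven-point curves.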

In assay [2] the test system is HCV replicon cells. The assay is described as follows: HCV replicon FRET / luciferase assay (96-well plates). Type of assay: cell-based. To be noted: Hepatitis C virus, Table 1a; HCV replicon; read-out: EC50. The procedure, abridged:
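HCV replicon cells (with or without Renilla luciferase reporter) were plated with titrated compounds at 37 °C. After Alamar blue toxicity reading, cells were lysed in reagent containing 20 μM EDANS/DABCYL NS3 protease FRET peptide and 150 mM NaCl, read kinetically at 340/490 nm, or assayed by Dual-Glo luciferase.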
A general note: In antiviral work, replicon cells carry a viral genome segment that copies itself.

T1 sequence (Q9WMX2 2420-2992): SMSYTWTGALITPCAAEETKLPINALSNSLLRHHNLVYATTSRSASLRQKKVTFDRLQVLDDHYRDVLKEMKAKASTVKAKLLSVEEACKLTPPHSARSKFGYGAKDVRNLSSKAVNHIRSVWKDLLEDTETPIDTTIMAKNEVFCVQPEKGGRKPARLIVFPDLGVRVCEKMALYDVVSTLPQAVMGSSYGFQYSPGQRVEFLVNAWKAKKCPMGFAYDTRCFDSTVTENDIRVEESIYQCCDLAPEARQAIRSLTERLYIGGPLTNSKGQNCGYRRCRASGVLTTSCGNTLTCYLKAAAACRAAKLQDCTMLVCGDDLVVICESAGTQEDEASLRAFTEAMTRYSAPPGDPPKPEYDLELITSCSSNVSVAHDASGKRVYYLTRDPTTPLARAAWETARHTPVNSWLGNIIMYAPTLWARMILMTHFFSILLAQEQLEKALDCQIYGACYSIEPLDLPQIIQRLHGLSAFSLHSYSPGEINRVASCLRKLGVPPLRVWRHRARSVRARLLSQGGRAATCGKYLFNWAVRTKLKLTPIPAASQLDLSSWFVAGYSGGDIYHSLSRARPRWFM

As to `CNC(=O)c1c(-c2ccc(F)cc2)oc2ccc(-c3cccc(C(=O)NC4(CO)CCCC4)c3)cc12`, the IC50 (as a rule, the point on the concentration scale where inhibition reaches its midpoint) in assay [1] is under 250 nM. Also, the EC50 – broadly, the midpoint of the concentration-response curve – in assay [2] was under 250 nM.
As to `CNC(=O)c1c(-c2ccc(F)cc2)oc2ccc(-c3cccc(C(=O)NCc4cccc(C)c4)c3)cc12`, the IC50 in assay [1] is under 250 nM. Also, the EC50 in assay [2] is under 250 nM.
With `CNC(=O)c1c(-c2ccc(F)cc2)oc2ccc(-c3cccc(C(=O)NCC(C)(C)C)c3)cc12`, the IC50 in assay [1] is under 250 nM. The EC50 in assay [2] was under 250 nM.
Turning to `CNC(=O)c1c(-c2ccc(F)cc2)oc2ccc(-c3cccc(C(=O)NCC4CC4)c3)cc12`, the IC50 in assay [1] is under 250 nM. Moreover, the EC50 in assay [2] is under 250 nM.
Take `CNC(=O)c1c(-c2ccc(F)cc2)oc2ccc(OCCOc3ccc(C(C)(C)C)cc3)cc12`: in assay [1], the IC50 is over 10000 nM. The EC50 in assay [2] was 1000 to 10000 nM.
Turning to `CNC(=O)c1c(-c2ccc(F)cc2)oc2ccc(OCCCNC(=O)OC(C)(C)C)cc12`, the IC50 in assay [1] is 1000 to 10000 nM. The EC50 in assay [2] lay within 1000 to 10000 nM.
For the compound `CNC(=O)c1c(-c2ccc(F)cc2)oc2ccc(-c3ccc(F)cc3OCc3ccccc3)cc12`, the IC50 in assay [1] is over 10000 nM. The EC50 in assay [2] lay within 1000 to 10000 nM.
With `CNC(=O)c1c(-c2ccc(F)cc2)oc2ccc(-c3ccc(OC4CCCCO4)cc3)cc12` (stereo not shown), the IC50 in assay [1] is over 10000 nM. The EC50 in assay [2] fell in the range of 1000 to 10000 nM.
For `CNC(=O)c1c(-c2ccc(F)cc2)oc2ccc(-c3cnc(OC)c(F)c3)cc12`, in that order: over 10000 nM and 1000 to 10000 nM.
As for `CNC(=O)c1c(-c2ccc(F)cc2)oc2ccc(-c3ccc(S(=O)(=O)NC)cc3)cc12`, the IC50 in assay [1] was over 10000 nM. Moreover, the EC50 in assay [2] was in the range of 1000 to 10000 nM.
For `CNC(=O)c1c(-c2ccc(F)cc2)oc2ccc(-c3cc(Cl)cnc3F)cc12`, in that order: over 10000 nM and 1000 to 10000 nM.
For `CNC(=O)c1c(-c2ccc(F)cc2)oc2ccc(-c3ccc(C(=O)N4CCCC4)cc3)cc12`, in that order: 1000 to 10000 nM and 1000 to 10000 nM.
The matching figures for `CNC(=O)c1c(-c2ccc(F)cc2)oc2ccc(-c3cc(CO)ccc3Cl)cc12`: over 10000 nM and 1000 to 10000 nM.
Consider `CC(C)Oc1cc2c(-c3ncn[nH]3)c(-c3ccc(F)cc3)oc2cc1N(C)S(C)(=O)=O`, for which, in assay [1], the IC50 is 250 to 1000 nM. Further, in assay [2], the EC50 fell in the range of 1000 to 10000 nM.
For `CNC(=O)c1c(-c2ccc(F)cc2)oc2ccc(-c3cccc(C(=O)OC(C)(C)C)c3)cc12`, in that order: 1000 to 10000 nM and 1000 to 10000 nM.
In the case of `CCN(CC)C(=O)c1cccc(-c2ccc3oc(-c4ccc(F)cc4)c(C(=O)NC)c3c2)c1`, in assay [1], the IC50 is 1000 to 10000 nM. Besides, the EC50 in assay [2] fell in the range of 1000 to 10000 nM.
Consider `CNC(=O)c1c(-c2ccc(F)cc2)oc2ccc(-c3cccc(C(=O)N(C)C)c3)cc12`, for which the IC50 in assay [1] fell in the range of 1000 to 10000 nM. The EC50 in assay [2] was in the range of 1000 to 10000 nM.
As to `CNC(=O)c1c(-c2ccc(F)cc2)oc2ccc(-c3cccc(/C=C/C(=O)O)c3)cc12`, the half-maximal inhibitory concentration (IC50) in assay [1] lay within 250 to 1000 nM. The EC50 in assay [2] fell in the range of 1000 to 10000 nM.
For the compound `CNC(=O)c1c(-c2ccc(F)cc2)oc2ccc(-c3cccc(C(=O)N4CCC(C)CC4)c3)cc12`, the IC50 in assay [1] lay within 1000 to 10000 nM. Further, in assay [2], the EC50 is 1000 to 10000 nM.
As to `CNC(=O)c1c(-c2ccc(F)cc2)oc2ccc(-c3cccc(C(=O)N4CCCCC4)c3)cc12`, in assay [1], the IC50 is 250 to 1000 nM. Besides, the EC50 in assay [2] fell in the range of 1000 to 10000 nM.
For the compound `CNC(=O)c1c(-c2ccc(F)cc2)oc2ccc(-c3cccc(C(=O)NCc4ccccc4O)c3)cc12`, in assay [1], the IC50 lay within 250 to 1000 nM. In assay [2], the EC50 lay in the range of 1000 to 10000 nM.
For `CNC(=O)c1c(-c2ccc(F)cc2)oc2ccc(-c3cccc(C(=O)N4CCCC(O)C4)c3)cc12` (stereo not shown), in that order: 1000 to 10000 nM and 1000 to 10000 nM.
With `CNC(=O)c1c(-c2ccc(F)cc2)oc2ccc(-c3cccc(C(=O)NCc4ccccc4N)c3)cc12`, the IC50 in assay [1] fell in the range of 1000 to 10000 nM. The EC50 in assay [2] is 1000 to 10000 nM.
With `CNC(=O)c1c(-c2ccc(F)cc2)oc2ccc(-c3cccc(C(=O)N(C)CCOC)c3)cc12`, the IC50 in assay [1] was in the range of 1000 to 10000 nM. Further, the EC50 in assay [2] is 1000 to 10000 nM.
For `C#CCNC(=O)c1cccc(-c2ccc3oc(-c4ccc(F)cc4)c(C(=O)NC)c3c2)c1`, the IC50 in assay [1] was 250 to 1000 nM. For the same compound, the EC50 in assay [2] was in the range of 1000 to 10000 nM.
The matching figures for `CNC(=O)c1c(-c2ccc(F)cc2)oc2ccc(-c3cccc(C(=O)NCc4ccccc4F)c3)cc12`: 250 to 1000 nM and 1000 to 10000 nM.
For `CNC(=O)c1c(-c2ccc(F)cc2)oc2ccc(-c3cccc(C(=O)N4CCCC4C)c3)cc12` (stereo not shown), in that order: 250 to 1000 nM and 1000 to 10000 nM.
The matching figures for `CNC(=O)c1c(-c2ccc(F)cc2)oc2ccc(-c3cccc(C(=O)N4CC[C@@H](O)C4)c3)cc12`: 1000 to 10000 nM and 1000 to 10000 nM.
Take `CNC(=O)c1c(-c2ccc(F)cc2)oc2ccc(-c3cccc(C(=O)N(CCOC)CCOC)c3)cc12`: the IC50 in assay [1] was 1000 to 10000 nM. Besides, in assay [2], the EC50 lay in the range of 1000 to 10000 nM.
On to `CCN1CCN(C(=O)c2cccc(-c3ccc4oc(-c5ccc(F)cc5)c(C(=O)NC)c4c3)c2)CC1`, for which, in assay [1], the IC50 lay within 1000 to 10000 nM. Also, the EC50 in assay [2] was in the range of 1000 to 10000 nM.
Turning to `CNC(=O)c1c(-c2ccc(F)cc2)oc2ccc(-c3cccc(C(=O)NCCNC(C)=O)c3)cc12`, the IC50 in assay [1] lay within 1000 to 10000 nM. Moreover, the EC50 in assay [2] lay within 1000 to 10000 nM.
Consider `CNC(=O)c1c(-c2ccc(F)cc2)oc2ccc(-c3cccc(C(=O)N(C)CCN(C)C)c3)cc12`, for which the IC50 in assay [1] is over 10000 nM. In addition, the EC50 in assay [2] is 1000 to 10000 nM.
For `CNC(=O)c1c(-c2ccc(F)cc2)oc2ccc(-c3cccc(C(=O)Nc4cccc(OC)c4)c3)cc12`, in that order: 1000 to 10000 nM and 1000 to 10000 nM.
Consider `CCOC(=O)C1CCCN(C(=O)c2cccc(-c3ccc4oc(-c5ccc(F)cc5)c(C(=O)NC)c4c3)c2)C1` (stereo not shown), for which, in assay [1], the IC50 was in the range of 1000 to 10000 nM. Further, the EC50 in assay [2] lay in the range of 1000 to 10000 nM.
Consider `CNC(=O)c1c(-c2ccc(F)cc2)oc2ccc(-c3cccc(C(=O)N4CC(C)OC(C)C4)c3)cc12` (stereo not shown), for which the IC50 in assay [1] was in the range of 1000 to 10000 nM. In addition, in assay [2], the EC50 fell in the range of 1000 to 10000 nM.
`CNC(=O)c1c(-c2ccc(F)cc2)oc2ccc(-c3cccc(C(=O)N4CCC[C@H]4CO)c3)cc12`: the IC50 in assay [1] lay within 250 to 1000 nM. Also, in assay [2], the EC50 fell in the range of 1000 to 10000 nM.
For `CNC(=O)c1c(-c2ccc(F)cc2)oc2ccc(-c3cccc(C(=O)N(C)CCO)c3)cc12`, in that order: 1000 to 10000 nM and 1000 to 10000 nM.
For `CNC(=O)c1c(-c2ccc(F)cc2)oc2ccc(-c3cccc(C(=O)N4CCCC(C)C4)c3)cc12` (stereo not shown), in that order: 1000 to 10000 nM and 1000 to 10000 nM.
The matching figures for `CNC(=O)c1c(-c2ccc(F)cc2)oc2ccc(-c3cccc(C(=O)Nc4ccccc4Cl)c3)cc12`: 1000 to 10000 nM and 1000 to 10000 nM.
Turning to `CNC(=O)c1c(-c2ccc(F)cc2)oc2ccc(-c3cccc(C(=O)Nc4cccc(O)c4)c3)cc12`, the IC50 in assay [1] lay in the range of 1000 to 10000 nM. In addition, the EC50 in assay [2] fell in the range of 1000 to 10000 nM.
As to `CNC(=O)c1c(-c2ccc(F)cc2)oc2ccc(-c3cccc(C(=O)N4CCCC(CO)C4)c3)cc12` (stereo not shown), the IC50 in assay [1] lay within 1000 to 10000 nM. In addition, in assay [2], the EC50 lay in the range of 1000 to 10000 nM.
With `CNC(=O)c1c(-c2ccc(F)cc2)oc2ccc(-c3ccc(C(=O)N4CC[C@H](NC(C)=O)C4)cc3)cc12`, in assay [1], the IC50 lay within 1000 to 10000 nM. Moreover, in assay [2], the EC50 lay in the range of 1000 to 10000 nM.
For the compound `CCN(Cc1ccncc1)C(=O)c1ccc(-c2ccc3oc(-c4ccc(F)cc4)c(C(=O)NC)c3c2)cc1`, the IC50 in assay [1] is over 10000 nM. In addition, in assay [2], the EC50 fell in the range of 1000 to 10000 nM.
The matching figures for `CNC(=O)c1c(-c2ccc(F)cc2)oc2ccc(-c3ccc(C(=O)NCC(=O)OC)cc3)cc12`: over 10000 nM and 1000 to 10000 nM.
